Measurements taken from ChEMBL document CHEMBL3885861, “Open TG-GATES”.

Organism: Rattus norvegicus
Assay: Open TG-GATES - Regimen: Single
Type: toxicity, organism-based, Sprague-Dawley
Set-up: regimen Single, gender Male, age 6 weeks
Details: in vivo, po, 100 mg/kg, route gavage, dose level High; for Bas / Eos / Hb / Ht / Lym / MCH / MCHC / MCV / Mono / Neu / Plat / RBC / Ret / WBC: tissue Blood; for KIDNEY_L / KIDNEY_R / KIDNEY_TOTAL: tissue Kidney; for LIVER: tissue Liver; for A/G / ALP / ALT / AST / BUN / CRE / Ca / Cl / DBIL / GLC / IP / K / LDH / Na / PL / RALB / TBIL / TC / TG / TP / gamma-GTP: tissue Plasma

Structure (SMILES): Cc1ccc2cc3c(ccc4ccccc43)c3c2c1CC3 [3-METHYLCHOLANTHRENE]
- TERMINAL_BW (3 h): 211 g
- Bas (3 h): 0%
- Eos (3 h): 1%
- Hb (3 h): 12.4 g/dL
- Ht (3 h): 38.7%
- Lym (3 h): 74.4%
- MCH (3 h): 20.1 pg
- MCHC (3 h): 32.2%
- MCV (3 h): 62.6 fL
- Mono (3 h): 3.2%
- Neu (3 h): 21%
- Plat (3 h): 125.2 x10_4/uL
- RBC (3 h): 618.4 x10_4/ul
- Ret (3 h): 9.2%
- WBC (3 h): 117.6 x10_2/uL
- KIDNEY_L (3 h): 0.9 g
- KIDNEY_R (3 h): 0.9 g
- KIDNEY_TOTAL (3 h): 1.8 g
- LIVER (3 h): 9.5 g
- A/G (3 h): 1
- ALP (3 h): 1507 IU/L
- ALT (3 h): 44.4 IU/L
- AST (3 h): 77.4 IU/L
- BUN (3 h): 12.9 mg/dL
- CRE (3 h): 0.1 mg/dL
- Ca (3 h): 10.8 mg/dL
- Cl (3 h): 101.9 meq/L
- DBIL (3 h): 0.002 mg/dL
- GLC (3 h): 180.4 mg/dL
- IP (3 h): 8.7 mg/dL
- K (3 h): 4.3 meq/L
- LDH (3 h): 276.8 IU/L
- Na (3 h): 139.4 meq/L
- PL (3 h): 178.2 mg/dL
- RALB (3 h): 2.9 g/dL
- TBIL (3 h): 0.012 mg/dL
- TC (3 h): 89.8 mg/dL
- TG (3 h): 164.2 mg/dL
- TP (3 h): 5.7 g/dL
- gamma-GTP (3 h): 0.7 IU/L
- TERMINAL_BW (6 h): 206.7 g
- Bas (6 h): 0%
- Eos (6 h): 0.2%
- Hb (6 h): 12.6 g/dL
- Ht (6 h): 38.9%
- Lym (6 h): 75.6%
- MCH (6 h): 20.6 pg
- MCHC (6 h): 32.4%
- MCV (6 h): 63.6 fL
- Mono (6 h): 4.2%
- Neu (6 h): 18.8%
- Plat (6 h): 136.5 x10_4/uL
- RBC (6 h): 612 x10_4/ul
- Ret (6 h): 9%
- WBC (6 h): 135.9 x10_2/uL
- KIDNEY_L (6 h): 0.9 g
- KIDNEY_R (6 h): 0.9 g
- KIDNEY_TOTAL (6 h): 1.7 g
- LIVER (6 h): 8.9 g
- A/G (6 h): 1
- ALP (6 h): 1605.4 IU/L
- ALT (6 h): 37.2 IU/L
- AST (6 h): 71.4 IU/L
- BUN (6 h): 8.3 mg/dL
- CRE (6 h): 0.1 mg/dL
- Ca (6 h): 10.6 mg/dL
- Cl (6 h): 104.8 meq/L
- DBIL (6 h): 0.002 mg/dL
- GLC (6 h): 175.4 mg/dL
- IP (6 h): 9.2 mg/dL
- K (6 h): 4.3 meq/L
- LDH (6 h): 203.2 IU/L
- Na (6 h): 141 meq/L
- PL (6 h): 165.6 mg/dL
- RALB (6 h): 2.9 g/dL
- TBIL (6 h): 0.022 mg/dL
- TC (6 h): 85.6 mg/dL
- TG (6 h): 83.5 mg/dL
- TP (6 h): 5.7 g/dL
- gamma-GTP (6 h): 0.8 IU/L
- TERMINAL_BW (9 h): 206.7 g
- Bas (9 h): 0%
- Eos (9 h): 0.6%
- Hb (9 h): 12.7 g/dL
- Ht (9 h): 39%
- Lym (9 h): 75.8%
- MCH (9 h): 20.6 pg
- MCHC (9 h): 32.4%
- MCV (9 h): 63.6 fL
- Mono (9 h): 3.4%
- Neu (9 h): 19.4%
- Plat (9 h): 125.7 x10_4/uL
- RBC (9 h): 613.8 x10_4/ul
- Ret (9 h): 8.6%
- WBC (9 h): 108.2 x10_2/uL
- KIDNEY_L (9 h): 0.9 g
- KIDNEY_R (9 h): 0.9 g
- KIDNEY_TOTAL (9 h): 1.8 g
- LIVER (9 h): 9 g
- A/G (9 h): 1
- ALP (9 h): 1396.4 IU/L
- ALT (9 h): 34.4 IU/L
- AST (9 h): 70.4 IU/L
- BUN (9 h): 9.8 mg/dL
- CRE (9 h): 0.1 mg/dL
- Ca (9 h): 10.6 mg/dL
- Cl (9 h): 104 meq/L
- DBIL (9 h): 0.002 mg/dL
- GLC (9 h): 179.4 mg/dL
- IP (9 h): 10.6 mg/dL
- K (9 h): 4.6 meq/L
- LDH (9 h): 248.8 IU/L
- Na (9 h): 142.5 meq/L
- PL (9 h): 150.4 mg/dL
- RALB (9 h): 2.8 g/dL
- TBIL (9 h): 0.004 mg/dL
- TC (9 h): 79.2 mg/dL
- TG (9 h): 95 mg/dL
- TP (9 h): 5.6 g/dL
- gamma-GTP (9 h): 0.6 IU/L
- TERMINAL_BW (24 h): 218 g
- Bas (24 h): 0%
- Eos (24 h): 0%
- Hb (24 h): 12.8 g/dL
- Ht (24 h): 39.2%
- Lym (24 h): 81.2%
- MCH (24 h): 20 pg
- MCHC (24 h): 32.6%
- MCV (24 h): 61.6 fL
- Mono (24 h): 3%
- Neu (24 h): 14.6%
- Plat (24 h): 124.3 x10_4/uL
- RBC (24 h): 636.8 x10_4/ul
- Ret (24 h): 8.1%
- WBC (24 h): 127.1 x10_2/uL
- KIDNEY_L (24 h): 0.9 g
- KIDNEY_R (24 h): 0.9 g
- KIDNEY_TOTAL (24 h): 1.9 g
- LIVER (24 h): 11.2 g
- A/G (24 h): 1
- ALP (24 h): 1595.4 IU/L
- ALT (24 h): 38.6 IU/L
- AST (24 h): 69.4 IU/L
- BUN (24 h): 16.7 mg/dL
- CRE (24 h): 0.2 mg/dL
- Ca (24 h): 11 mg/dL
- Cl (24 h): 103.1 meq/L
- DBIL (24 h): 0.002 mg/dL
- GLC (24 h): 171.4 mg/dL
- IP (24 h): 7.4 mg/dL
- K (24 h): 4.7 meq/L
- LDH (24 h): 188.8 IU/L
- Na (24 h): 141.6 meq/L
- PL (24 h): 181.2 mg/dL
- RALB (24 h): 2.8 g/dL
- TBIL (24 h): 0 mg/dL
- TC (24 h): 92 mg/dL
- TG (24 h): 209.4 mg/dL
- TP (24 h): 5.5 g/dL
- gamma-GTP (24 h): 0.9 IU/L
